Test results: BindingDB's records for doi:10.1111/cbdd.12752 (Jagiellonian University Medical College, 2016)

The compounds below were run against Histamine H4 receptor (Homo sapiens, UniProt Q9H3N8) (assay: In vitro [3H]histamine Binding Assay). Settings: pH 7.4; 4 °C.
Sequence of Histamine H4 receptor (Q9H3N8 whole entry): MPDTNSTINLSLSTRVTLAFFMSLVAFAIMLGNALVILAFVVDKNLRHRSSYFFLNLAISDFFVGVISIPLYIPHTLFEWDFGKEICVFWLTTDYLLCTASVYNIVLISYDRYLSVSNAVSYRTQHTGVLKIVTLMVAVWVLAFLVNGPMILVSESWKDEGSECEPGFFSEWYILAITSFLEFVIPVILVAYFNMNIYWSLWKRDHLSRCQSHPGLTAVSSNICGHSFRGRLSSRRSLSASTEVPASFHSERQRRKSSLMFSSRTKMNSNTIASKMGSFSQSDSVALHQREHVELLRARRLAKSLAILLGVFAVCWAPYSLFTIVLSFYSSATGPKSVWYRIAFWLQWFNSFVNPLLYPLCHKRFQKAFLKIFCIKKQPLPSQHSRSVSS
Protocol: Prior to the experiments, cell membranes were sedimented by a 10 min centrifugation at 4 °C and 16 0009x g and resuspended in binding buffer (12.5 mM MgCl2, 1 mM EDTA and 75 mM Tris/HCl, pH 7.4). Competition binding experimentswere carried out by incubating membranes, 35 ug/well (prepared from Sf9 cells transiently expressing human H4R, co-expressed with G proteins Galphai2 and Gbeta1gamma2 subunits) in a final volume of 0.2 mL containing binding buffer and [3H]histamine 2x HCl (10 nM, 15.3 Ci/mmol, PerkinElmer, Waltham, MA, USA) in a 96 well microtitre plate. Assays were run in duplicates or triplicates with four or seven appropriate concentrations between 100 nM or 0.1 nM and 100 uM of the test compounds. Amount of experiments was at least 2. Only exceptions were for substance 2, 3, and 4 where only one experiment in duplicates was performed.Incubations were performed for 60 min at 25 °C and shaking at 250 rpm. Non-specific binding was determined.
With CN1CCN(CCCNC(=O)Nc2cccc(Cl)c2)CC1 [1-(3-Chlorophenyl)-3-(3-(4-methylpiperazin-1-yl)propyl)urea (7)] the Ki was greater than 100 µM.
Compound CN1CCN(CCCNC(=O)c2sc3cc(Cl)ccc3c2Cl)CC1 [3,6-Dichloro-N-(3-(4-methylpiperazin-1-yl)propyl)benzo[b]thiophene-2-carboxamide (6)] has a Ki greater than 100 µM.
For CN1CCN(c2nc(N)nc(CN3C(=O)NC(C)(C)C3=O)n2)CC1 [3-((4-Amino-6-(4-methylpiperazin-1-yl)-1,3,5-triazin-2-yl)methyl)-5,5-dimethylimidazolidine-2,4-dione (9)], the Ki was 14.6 µM.
With CC(C)Cc1nc(N)nc(N2CCN(C)CC2)n1 [4-(4-Methylpiperazin-1-yl)-6-(2-methylpropyl)-1,3,5-triazin-2-amine (10)] the Ki was 8.26 µM.
With CN1CCN(c2nc(N)nc(Cc3cccc4ccccc34)n2)CC1 [4-(4-Methylpiperazin-1-yl)-6-(naphthalen-1-ylmethyl)-1,3,5-triazin-2-amine (12)] the Ki was 5.6 µM.
For CN1CCN(c2nc(N)nc(-c3ccncc3)n2)CC1 [4-(4-Methylpiperazin-1-yl)-6-(pyridin-4-yl)-1,3,5-triazin-2-amine (15)], the Ki was 3.19 µM.
Compound CN1CCN(c2nc(N)nc(COc3ccc(Cl)cc3)n2)CC1 [4-((4-Chlorophenoxy)methyl)-6-(4-methylpiperazin-1-yl)-1,3,5-triazin-2-amine (14)] has a Ki of 10.6 µM.
CN1CCN(c2nc(N)nc(Cc3ccccc3)n2)CC1 [4-Benzyl-6-(4-methylpiperazin-1-yl)-1,3,5-triazin-2-amine (13)] showed a Ki of 7.5 µM.
Compound CN1CCN(CCCNC(=O)c2cc3cc(Cl)ccc3[nH]2)CC1 [5-Chloro-N-(3-(4-methylpiperazin-1-yl)propyl)-1H-indole-2-carboxamide (5)] has a Ki greater than 100 µM.
Compound CN1CCN(C(=O)c2ccccc2Cl)CC1 [(2-Chlorophenyl)(4-methylpiperazin-1-yl)methanone (1)] has a Ki greater than 100 µM.
CN1CCN(C(=O)c2cccc(Cl)c2)CC1 [(3-Chlorophenyl)(4-methylpiperazin-1-yl)methanone (2)] gave a Ki of 3.88 µM.
In the case of CN1CCN(C(=O)c2ccc(Cl)cc2)CC1 [(4-Chlorophenyl)(4-methylpiperazin-1-yl)methanone (3)], the Ki is reported as 7.55 µM.
Compound CN1CCN(C(=O)Nc2ccc(Cl)cc2)CC1 [N-(4-Chlorophenyl)-4-methylpiperazine-1-carboxamide (4)] has a Ki of 3.52 µM.
